# Experimental data from patent US20180243274A1, “ANTIBACTERIAL COMPOSITIONS” (WOCKHARDT LIMITED, priority 2013, published 2018).
# Columns and labels:
# [1] = tested on: E. coli NCTC 13353 producing CTX-M15 and OXA 1 beta-lactamase enzymes; experiment: Time kill study against E. coli NCTC 13353; assay type: cell-based; details: for effect on bacterial counts when used alone: throughout the duration of the study
# Description: (§1) The synergistic killing effect of the combinations according to invention was studied by performing time kill studies. In a typical time kill study, the freshly grown cultures were diluted to the required cell density (initial starting inoculum) in Cation adjusted Muller Hinton broth medium (BD, USA). The antibacterial agents (either alone or in combination) at the required concentrations were added into the culture-containing medium. The samples were incubated under shaking condition (120 rpm) at 37° C. Enumeration of viable bacterial count was done every 2 hour by diluting in normal saline and plating on to the Tryptic Soya Agar plates (BD, USA). The plates were incubated for 24 hours to arrive at the viable bacterial count. The results are expressed in terms of Log 10 CFU per ml. In general, the decrease of 1 Log 10 CFU/ml corresponds to 90% killing of bacteria. Similarly, 2 Log 10 CFU/ml reductions indicates to 99% killing of bacteria and 3 Log 10 CFU/ml reductions is equal to 99.9% killing of bacteria.
# E. coli NCTC 13353 produces resistant CTX-M15 and OXA 1 beta-lactamase enzymes.
# [2] = tested on: clinical isolate of E. coli M50 producing CMY 6, DHA—1/2 beta-lactamase enzymes; experiment: Time kill study against clinical isolate E. coli M50; assay type: cell-based; details: for effect on bacterial counts when used alone: throughout the duration of the study
# Description: as §1
# The results on antibacterial activity of the antibacterial agent selected from cefixime, cefpodoxime, ceftibuten or cefuroxime alone and in combination with a compound of Formula (I) against E. coli M50 are given in Table 2. E. coli M50 produces resistant CMY 6, DHA-½ beta-lactamase enzymes.
Compound,Bacterial count (Log10 CFU/ml) 0 hours ([1]; agent alone 1 mcg/ml),Bacterial count (Log10 CFU/ml) 2 hours ([1]; agent alone 1 mcg/ml),Bacterial count (Log10 CFU/ml) 4 hours ([1]; agent alone 1 mcg/ml),Bacterial count (Log10 CFU/ml) 6 hours ([1]; agent alone 1 mcg/ml),Bacterial count (Log10 CFU/ml) 24 hours ([1]; agent alone 1 mcg/ml),effect on bacterial counts when used alone [1],Bacterial count (Log10 CFU/ml) 0 hour ([2]; agent alone 4 mcg/ml),Bacterial count (Log10 CFU/ml) 2 hours ([2]; agent alone 4 mcg/ml),Bacterial count (Log10 CFU/ml) 4 hours ([2]; agent alone 4 mcg/ml),Bacterial count (Log10 CFU/ml) 6 hours ([2]; agent alone 4 mcg/ml),Bacterial count (Log10 CFU/ml) 8 hours ([2]; agent alone 4 mcg/ml),effect on bacterial counts when used alone [2],also measured
"CO/N=C(\C(=O)N[C@@H]1C(=O)N2C(C(=O)O)=C(COC(N)=O)CS[C@H]12)c1ccco1 [Cefuroxime, cefuroxime]",7.23 Log10 CFU/ml,8.25 Log10 CFU/ml,8.80 Log10 CFU/ml,9.38 Log10 CFU/ml,9.48 Log10 CFU/ml,did not reduce the bacterial counts,7.77 Log10 CFU/ml,8.58 Log10 CFU/ml,9.02 Log10 CFU/ml,9.2 Log10 CFU/ml,9.50 Log10 CFU/ml,did not reduce the bacterial counts,–
"Nc1nc(/C(=C/CC(=O)O)C(=O)N[C@@H]2C(=O)N3C(C(=O)O)=CCS[C@H]23)cs1 [Ceftibuten, ceftibuten]",7.23 Log10 CFU/ml,8.10 Log10 CFU/ml,8.7 Log10 CFU/ml,9.04 Log10 CFU/ml,9.51 Log10 CFU/ml,did not reduce the bacterial counts,7.77 Log10 CFU/ml,8.48 Log10 CFU/ml,8.70 Log10 CFU/ml,9.08 Log10 CFU/ml,9.20 Log10 CFU/ml,did not reduce the bacterial counts,–
"C=CC1=C(C(=O)O)N2C(=O)[C@@H](NC(=O)/C(=N\OCC(=O)O)c3csc(N)n3)[C@H]2SC1 [Cefixime, cefixime]",7.23 Log10 CFU/ml,8.65 Log10 CFU/ml,8.90 Log10 CFU/ml,8.84 Log10 CFU/ml,9.06 Log10 CFU/ml,–,7.77 Log10 CFU/ml,8.84 Log10 CFU/ml,9.20 Log10 CFU/ml,8.90 Log10 CFU/ml,9.30 Log10 CFU/ml,–,–
"O=C(NOC[C@@H]1CCCN1)[C@@H]1CC[C@@H]2CN1C(=O)N2OS(=O)(=O)O [Compound of Formula (I), (2S, 5R)-7-oxo-N-[(2S)-pyrrolidin-2-ylmethoxy]-6-(sulfooxy)-1,6-diazabicyclo[3.2.1]octane-2-carboxamide]",–,–,–,–,–,did not reduce the bacterial counts,7.77 Log10 CFU/ml,8.02 Log10 CFU/ml,8.09 Log10 CFU/ml,8.07 Log10 CFU/ml,8.08 Log10 CFU/ml,did not reduce the bacterial counts,Bacterial count (Log10 CFU/ml) 0 hours ([1]; alone 4 mcg/ml): 7.23 Log10 CFU/ml; Bacterial count (Log10 CFU/ml) 2 hours ([1]; alone 4 mcg/ml): 7.17 Log10 CFU/ml; Bacterial count (Log10 CFU/ml) 4 hours ([1]; alone 4 mcg/ml): 7.14 Log10 CFU/ml; Bacterial count (Log10 CFU/ml) 6 hours ([1]; alone 4 mcg/ml): 7.11 Log10 CFU/ml; Bacterial count (Log10 CFU/ml) 24 hours ([1]; alone 4 mcg/ml): 7.87 Log10 CFU/ml
C[C@@H](O)[C@H]1C(=O)N2C(C(=O)O)=C(SCCN=CN)C[C@H]12 [Imipenem],7.23 Log10 CFU/ml,4.95 Log10 CFU/ml,4.47 Log10 CFU/ml,4.39 Log10 CFU/ml,7.34 Log10 CFU/ml,–,–,–,–,–,–,–,Bacterial count (Log10 CFU/ml) 0 hour ([2]; alone 1 mcg/ml): 7.77 Log10 CFU/ml; Bacterial count (Log10 CFU/ml) 2 hours ([2]; alone 1 mcg/ml): 5.60 Log10 CFU/ml; Bacterial count (Log10 CFU/ml) 4 hours ([2]; alone 1 mcg/ml): 7.47 Log10 CFU/ml; Bacterial count (Log10 CFU/ml) 6 hours ([2]; alone 1 mcg/ml): 8.07 Log10 CFU/ml; Bacterial count (Log10 CFU/ml) 8 hours ([2]; alone 1 mcg/ml): 8.47 Log10 CFU/ml
"COCC1=C(C(=O)O)N2C(=O)[C@@H](NC(=O)/C(=N\OC)c3csc(N)n3)[C@H]2SC1 [Cefpodoxime, cefpodoxime]",7.23 Log10 CFU/ml,8.17 Log10 CFU/ml,8.74 Log10 CFU/ml,8.90 Log10 CFU/ml,9.06 Log10 CFU/ml,–,7.77 Log10 CFU/ml,8.60 Log10 CFU/ml,9.04 Log10 CFU/ml,9.16 Log10 CFU/ml,9.19 Log10 CFU/ml,–,–
